By IC50 is commonly meant the concentration that inhibits the measured activity by half.

Results on one molecule are retold here after patent US20190375778A1, “ADENOSINE DERIVATIVES FOR USE IN THE TREATMENT OF CANCER” (NuCana plc, priority 2016, published 2019).

One assay concerns Murine leukemia L1210. The assay is described as follows: Cell proliferation (Coulter count) assay, L1210. It counts as cell-based. The settings on record: Mus musculus, 48 h, read-out: absolute IC50, L1210. The procedure, abridged: (§1)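 Cells grown in DMEM with 10% FBS. HeLa seeded at 10 000 cells/well, compound added after 24 h, counted day 5; L1210 and CEM seeded at 60 000 cells/well with compound, counted after 48 h and 72 h respectively. IC50 is concentration halving proliferation by Coulter count.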

The subject of a further assay is human T-lymphocyte CEM. The assay is described as follows: Cell proliferation (Coulter count) assay, CEM. It counts as cell-based. To be noted: 72 h, read-out: absolute IC50, CEM. The method, boiled down: as §1
Assay [1] concerns human cervix carcinoma HeLa cells. Description: Cell proliferation (Coulter count) assay, HeLa. It counts as cell-based. The settings on record: 120 h, cell count on day 5, read-out: absolute IC50, HeLa. The method, boiled down: as §1
Another assay has as its system CCRFCEM. Description: CellTiterGlo viability assay, CCRFCEM. It counts as cell-based. The settings on record: Homo sapiens, CCRF-CEM, 72 h, read-out: IC50 CCRFCEM. How it is done:
(§2) In vitro viability assay were performed to assess the effects of compounds on cell viability in selected cell lines over ˜72 hrs using the CellTiterGlo (CTG, Promega-G7573) assay. The tests were performed in duplicates with treatment of compounds at 9 points, 3.16 folds titration in 96 well plates over ˜72 hrs. The compound starting concentrations were 198 μM. Cell viability assay using CellTiterGlo in 96-well plate were performed. Compound treatment 72 hrs, standard growth conditions, duplicates. Compounds were dissolved to 40 mM with thawed […]. Compounds were serially diluted at 3.16 fold in thawed DMSO, and warmed to 37° C. before being dissolved in media (2 μl+200 μl). After compounds were dissolved in media, media containing compounds were warmed to 37° C. in incubator and then compounds in media were added to cell plates (50 μl+50 μl) in duplicates. The compounds' final concentrations were from […] to 19.9 nM. All compound solubilities were checked and recorded again, then the plates were transferred to CO2 tissue culture incubator immediately and incubated for 3 days. DMSO final concentration is 0.5%.
On the technique in general: In ATP-based viability assays light output follows the ATP content of the culture.

A further assay deals with HEL92.1.7. Description: CellTiterGlo viability assay, HEL92.1.7. It counts as cell-based. The settings on record: Homo sapiens, HEL 92.1.7, 72 h, read-out: IC50 HEL92.1.7. As to the method:
as §2

The subject of a further assay is KG-1. Description: CellTiterGlo viability assay, KG-1. It counts as cell-based. The settings on record: Homo sapiens, KG-1, 72 h, read-out: IC50 KG-1. As to the method:
as §2

In another assay the test system is K562. Description: CellTiterGlo viability assay, K562. It counts as cell-based. To be noted: Homo sapiens, K562, 72 h, read-out: IC50 K562. As to the method:
as §2

The subject of another assay is MCF7. The assay is described as follows: CellTiterGlo viability assay, MCF7. It counts as cell-based. The settings on record: Homo sapiens, MCF7, 72 h, read-out: IC50 MCF7. How it is done: as §2
The next assay relates to MDAMB231. The assay is described as follows: CellTiterGlo viability assay, MDAMB231. It counts as cell-based, Human. As to the method: as §2
The test system of the next assay is NCI-H929. The assay is described as follows: CellTiterGlo viability assay, NCI-H929. The settings on record: Homo sapiens, NCI-H929, 72 h, read-out: IC50 NCI-H929. It counts as cell-based. How it is done: as §2
Another assay deals with MV4-11. The assay is described as follows: CellTiterGlo viability assay, MV4-11. It counts as cell-based. To be noted: Homo sapiens, MV4-11, 72 h, read-out: IC50 MV4-11. How it is done: as §2
Another assay has as its system RL. The assay is described as follows: CellTiterGlo viability assay, RL. It counts as cell-based. The settings on record: Homo sapiens, RL, 72 h, read-out: IC50 RL. How it is done:
as §2

A further assay deals with RPMI-8226. Description: CellTiterGlo viability assay, RPMI-8226. It counts as cell-based, Human. The settings on record: Homo sapiens, RPMI-8226, 72 h, read-out: IC50 RPMI-8226. How it is done:
as §2

The next assay has as its system HL-60. Description: CellTiterGlo viability assay, HL-60. It counts as cell-based. The settings on record: Homo sapiens, HL-60, 72 h, read-out: IC50 HL-60. How it is done:
as §2

Regarding `CC(C)C[C@H](NP(=O)(OC[C@H]1O[C@@H](n2c(Cl)nc3c(N)ncnc32)C(O)C1O)Oc1cccc2ccccc12)C(=O)OCc1ccccc1` (stereo partly drawn) [H, 5′-([(Benzyloxy-L-leucin-N-yl)-naphth-1-yl]-phosphatyl) 8-chloroadenosine], the IC50 in the assay on Murine leukemia L1210 is 5 to 15 µM; in the assay with human T-lymphocyte CEM it was 0.1 to 5 µM; in assay [1], 0.1 to 5 µM; in the assay on CCRFCEM, 5 to 15 µM; in the assay with HEL92.1.7, 0.1 to 5 µM; in the assay on KG-1 it was 5 to 15 µM. Besides, the IC50 in the assay on K562 lay in the range of 0.1 to 5 µM; in the assay on MCF7, 0.1 to 5 µM; in the assay with MDAMB231 (Homo sapiens, MDA-MB-231, 72 h, read-out: IC50 MDAMB231), 5 to 15 µM; with NCI-H929, 0.1 to 5 µM; in the assay with MV4-11, 0.1 to 5 µM; with RL, 15 to 100 µM. In addition, the IC50 with RPMI-8226 was 0.1 to 5 µM; in the assay with HL-60, 5 to 15 µM. The “MI% MDAMB231” value in the assay with MDAMB231 (CellTiterGlo, 72 hrs) is given as 99%.
